Test results taken from ChEMBL document CHEMBL1201862, “PubChem BioAssay data set” (2004).
Calls of active or inactive are those of the source.

How the values were obtained:
[1] = HPDE-C7 pancreatic duct cell viability loss – fluorescence, HTS (AID 430); assay type: functional, cell-based; settings: Homo sapiens
[2] = molecular target: Large T antigen (Simian virus 40, UniProt P03070); assay type: functional, Betapolyomavirus macacae;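 also: Confirmatory-stage PubChem screen for compounds that inhibit SV40 T antigen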
Large T antigen, sequence (P03070 whole entry): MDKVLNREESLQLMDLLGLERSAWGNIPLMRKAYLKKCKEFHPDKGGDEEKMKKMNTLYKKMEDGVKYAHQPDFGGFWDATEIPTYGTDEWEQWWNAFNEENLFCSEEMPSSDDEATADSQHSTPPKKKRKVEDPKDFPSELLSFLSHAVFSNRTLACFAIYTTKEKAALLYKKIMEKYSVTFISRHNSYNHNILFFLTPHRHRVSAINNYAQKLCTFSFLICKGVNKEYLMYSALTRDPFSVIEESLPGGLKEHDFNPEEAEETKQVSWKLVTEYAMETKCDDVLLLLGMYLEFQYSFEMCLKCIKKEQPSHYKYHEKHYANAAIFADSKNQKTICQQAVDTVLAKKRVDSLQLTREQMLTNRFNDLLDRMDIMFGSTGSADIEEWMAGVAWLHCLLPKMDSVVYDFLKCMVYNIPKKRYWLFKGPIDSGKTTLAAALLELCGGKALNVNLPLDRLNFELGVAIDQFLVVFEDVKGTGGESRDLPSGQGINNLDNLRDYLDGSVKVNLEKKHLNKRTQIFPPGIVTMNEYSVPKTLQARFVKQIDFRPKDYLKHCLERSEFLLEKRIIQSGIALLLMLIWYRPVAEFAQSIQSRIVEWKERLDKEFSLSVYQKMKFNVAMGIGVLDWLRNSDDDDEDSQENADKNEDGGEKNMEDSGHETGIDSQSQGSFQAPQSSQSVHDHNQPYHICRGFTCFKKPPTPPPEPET

[3] = Trypanosoma cruzi growth suppression in host cells – NIH3T3 host cells, beta-gal luminescence, confirmation (AID 2044); assay type: functional, cell-based;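 also: intracellular parasites grown in NIH/3T3 mouse fibroblasts as host cells; luminescent beta-galactosidase reporter signal from transgenic T. cruzi replicating inside host cells; inhibitors lower the luminescence signal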
[4] = viability loss of HPDE-C7K cells – cell-based, fluorescence, HTS, primary screen (AID 431); assay type: functional; settings: Homo sapiens
[5] = NIH3T3 cell viability loss – ATP luminescence, mouse fibroblasts, counter-screen, dose response (AID 2010); assay type: functional, cell-based;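 also: cells exposed to compound for about 90 hours before reading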
[6] = microbe, parasite or virus in culture; assay type: functional; settings: Mycobacterium tuberculosis
[7] = molecular target: T1, Ubiquitin-conjugating enzyme E2 N (Homo sapiens, UniProt P61088); assay type: functional;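 also: Dose-response confirmation in a TR-FRET assay detecting UBC13-driven polyubiquitin chain formation, inhibition measured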
T1 sequence (P61088 whole entry): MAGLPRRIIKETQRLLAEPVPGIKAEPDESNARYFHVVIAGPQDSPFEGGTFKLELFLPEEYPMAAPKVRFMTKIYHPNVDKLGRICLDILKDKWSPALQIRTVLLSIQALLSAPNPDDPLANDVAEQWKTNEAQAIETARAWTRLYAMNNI

[8] = molecular target: T2, Small ubiquitin-related modifier 1 (Homo sapiens, UniProt P63165); test: SUMO1 protein interaction blockers, potency – biochemical, fluorescence polarization, uHTS hits, dose response (AID 624382); assay type: functional; settings: read-out: IC50_Mean
T2 sequence (P63165 whole entry): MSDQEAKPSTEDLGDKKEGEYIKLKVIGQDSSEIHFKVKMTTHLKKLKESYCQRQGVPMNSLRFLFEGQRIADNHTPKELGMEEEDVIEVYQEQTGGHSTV

[9] = molecular target: T2, Small ubiquitin-related modifier 1; test: SUMO1 protein-protein binding blockers, potency – biochemical, FRET, dose response (AID 624383); assay type: functional; settings: read-out: IC50_Mean
[10] = molecular target: T3, Rac GTPase-activating protein 1 (Homo sapiens, UniProt Q9H0H5); test: blockers of MgcRacGAP-driven Rac1 GTP hydrolysis – biochemical, ADP Hunter fluorescence, primary and confirmatory, confirmation (AID 624330); assay type: functional
T3 sequence (Q9H0H5 whole entry): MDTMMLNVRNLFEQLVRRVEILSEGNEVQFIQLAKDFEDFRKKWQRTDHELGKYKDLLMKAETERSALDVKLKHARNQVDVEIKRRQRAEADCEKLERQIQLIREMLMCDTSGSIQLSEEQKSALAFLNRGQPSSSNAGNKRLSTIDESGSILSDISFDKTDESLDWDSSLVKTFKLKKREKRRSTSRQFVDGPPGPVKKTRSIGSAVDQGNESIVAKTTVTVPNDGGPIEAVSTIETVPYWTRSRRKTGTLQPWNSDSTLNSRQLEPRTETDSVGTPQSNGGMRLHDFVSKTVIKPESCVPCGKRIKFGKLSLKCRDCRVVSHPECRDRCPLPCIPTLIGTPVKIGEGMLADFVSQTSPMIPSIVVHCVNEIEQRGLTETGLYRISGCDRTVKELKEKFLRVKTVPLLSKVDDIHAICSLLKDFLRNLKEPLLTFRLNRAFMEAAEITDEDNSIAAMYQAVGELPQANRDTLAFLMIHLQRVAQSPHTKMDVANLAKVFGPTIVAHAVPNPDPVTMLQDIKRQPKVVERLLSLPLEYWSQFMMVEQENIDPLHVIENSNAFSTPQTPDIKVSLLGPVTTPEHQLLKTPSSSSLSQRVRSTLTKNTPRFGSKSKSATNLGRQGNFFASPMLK

[11] = molecular target: Beta-galactosidase (Escherichia coli, UniProt Q8VNN2); test: Dose response counterscreen for EBI2 assay utilizing the enzyme, b-galactosidase.; assay type: functional
Beta-galactosidase, sequence (Q8VNN2 whole entry): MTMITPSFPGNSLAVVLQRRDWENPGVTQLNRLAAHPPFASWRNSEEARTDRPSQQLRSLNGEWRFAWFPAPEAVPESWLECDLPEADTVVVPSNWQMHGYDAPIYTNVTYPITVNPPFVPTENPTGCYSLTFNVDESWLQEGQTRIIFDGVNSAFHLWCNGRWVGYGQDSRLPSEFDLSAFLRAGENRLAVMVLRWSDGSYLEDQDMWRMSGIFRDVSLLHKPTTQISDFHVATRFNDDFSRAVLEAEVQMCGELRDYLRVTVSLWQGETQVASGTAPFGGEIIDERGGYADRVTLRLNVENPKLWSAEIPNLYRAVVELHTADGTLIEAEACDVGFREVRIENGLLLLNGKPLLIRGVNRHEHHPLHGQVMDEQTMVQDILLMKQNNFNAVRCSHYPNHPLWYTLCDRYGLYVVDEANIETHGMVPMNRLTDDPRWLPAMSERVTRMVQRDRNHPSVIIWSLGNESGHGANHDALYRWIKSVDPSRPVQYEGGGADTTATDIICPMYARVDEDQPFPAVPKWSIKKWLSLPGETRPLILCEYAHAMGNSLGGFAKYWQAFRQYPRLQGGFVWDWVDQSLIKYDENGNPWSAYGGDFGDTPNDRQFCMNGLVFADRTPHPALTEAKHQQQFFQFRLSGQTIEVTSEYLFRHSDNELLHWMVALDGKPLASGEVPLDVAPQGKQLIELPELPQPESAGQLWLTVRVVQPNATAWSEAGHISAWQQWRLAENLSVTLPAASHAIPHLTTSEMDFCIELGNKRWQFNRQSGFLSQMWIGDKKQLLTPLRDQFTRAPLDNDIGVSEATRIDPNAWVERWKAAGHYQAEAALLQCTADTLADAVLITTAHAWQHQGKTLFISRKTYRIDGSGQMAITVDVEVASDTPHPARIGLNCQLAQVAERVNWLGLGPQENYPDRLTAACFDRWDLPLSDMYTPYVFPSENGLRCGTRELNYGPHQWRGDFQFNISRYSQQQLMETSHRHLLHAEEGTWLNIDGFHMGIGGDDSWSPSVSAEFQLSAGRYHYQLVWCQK

[12] = molecular target: Prothrombin (Homo sapiens, UniProt P00734); test: Thrombin 1536 HTS Dose Response Confirmation. [Related pubchem assays: 1046 (Thrombin 1536 HTS; hits were confirmed in this assay)]; assay type: functional
[13] = molecular target: Genome polyprotein (dengue virus type 2, UniProt P29990); test: flavivirus cap methylation enzyme inhibition – biochemical, confirmation dose response, primary screen (AID 588689); assay type: functional
[14] = system: HEK293; test: EBV LMP1 TES2 canonical NF-kB signalling blockers – cell-based, HEK293, luciferase, cherry-pick, dose response (AID 588343); assay type: functional; settings: Homo sapiens
[15] = molecular target: Mu-type opioid receptor (Homo sapiens, UniProt P35372); assay type: functional, cell-based;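 also: U2OS cells with beta-arrestin recruitment to OPRM1 by beta-gal complementation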
Mu-type opioid receptor, sequence (P35372 whole entry): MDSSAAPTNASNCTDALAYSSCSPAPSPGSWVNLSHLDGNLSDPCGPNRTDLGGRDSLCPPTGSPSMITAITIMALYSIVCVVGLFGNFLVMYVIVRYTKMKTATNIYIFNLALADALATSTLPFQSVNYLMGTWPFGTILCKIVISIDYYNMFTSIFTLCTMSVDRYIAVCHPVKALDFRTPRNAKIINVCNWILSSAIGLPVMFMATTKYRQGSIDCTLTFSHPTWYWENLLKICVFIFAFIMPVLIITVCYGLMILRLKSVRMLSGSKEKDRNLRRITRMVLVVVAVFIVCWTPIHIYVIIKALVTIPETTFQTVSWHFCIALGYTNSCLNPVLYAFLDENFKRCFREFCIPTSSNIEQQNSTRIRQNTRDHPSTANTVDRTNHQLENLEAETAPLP

[16] = molecular target: 5-hydroxytryptamine receptor 2A (Mus musculus, UniProt P35363); assay type: functional, cell-based;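 also: CHO-K1 cells with tagged receptor and beta-arrestin; agonist potency measured as compound-induced activation of the receptor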
5-hydroxytryptamine receptor 2A, sequence (P35363 whole entry): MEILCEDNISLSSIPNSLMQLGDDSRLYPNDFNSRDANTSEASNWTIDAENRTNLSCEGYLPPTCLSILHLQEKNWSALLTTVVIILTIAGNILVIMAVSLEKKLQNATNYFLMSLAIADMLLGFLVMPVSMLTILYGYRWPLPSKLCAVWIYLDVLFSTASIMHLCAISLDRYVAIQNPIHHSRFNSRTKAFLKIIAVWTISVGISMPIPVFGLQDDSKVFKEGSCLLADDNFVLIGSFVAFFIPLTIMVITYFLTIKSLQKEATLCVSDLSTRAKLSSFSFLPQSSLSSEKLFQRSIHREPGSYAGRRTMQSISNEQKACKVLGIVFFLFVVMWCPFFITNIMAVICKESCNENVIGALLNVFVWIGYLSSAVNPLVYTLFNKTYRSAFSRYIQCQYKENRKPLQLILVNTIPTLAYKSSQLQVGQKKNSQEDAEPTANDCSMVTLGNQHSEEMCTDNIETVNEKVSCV

[17] = molecular target: T4, Heat shock factor protein 1 (Mus musculus, UniProt P38532); test: enhancement of HSF1-driven luciferase signal – cell-based, NIH3T3, luminescence, dose retest, confirmation (AID 435004); assay type: functional;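 also: stress induced by proteasome inhibitor MG132 added 30 min after compound; luciferase reporter driven by HSF1 response element in NIH3T3 cells; actives raise luminescence as potentiators of the MG132 stress response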
T4 sequence (P38532 whole entry): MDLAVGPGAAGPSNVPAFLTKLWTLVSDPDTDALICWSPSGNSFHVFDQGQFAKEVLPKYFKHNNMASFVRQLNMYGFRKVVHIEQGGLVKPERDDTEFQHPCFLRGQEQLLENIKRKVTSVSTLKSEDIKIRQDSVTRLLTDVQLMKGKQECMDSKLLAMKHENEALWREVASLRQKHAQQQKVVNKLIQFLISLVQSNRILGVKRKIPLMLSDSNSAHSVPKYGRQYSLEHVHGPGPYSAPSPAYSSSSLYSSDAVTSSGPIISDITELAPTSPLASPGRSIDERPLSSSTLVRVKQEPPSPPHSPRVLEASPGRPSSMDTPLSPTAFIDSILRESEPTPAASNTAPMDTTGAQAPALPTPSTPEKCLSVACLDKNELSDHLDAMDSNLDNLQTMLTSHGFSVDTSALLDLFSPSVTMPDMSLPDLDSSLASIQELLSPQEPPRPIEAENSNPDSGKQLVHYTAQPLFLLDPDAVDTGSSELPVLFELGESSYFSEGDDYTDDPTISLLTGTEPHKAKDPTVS

[18] = viability loss in THP-1 monocytes – THP-1 cells, cytotoxicity control for Vif-APOBEC3G degradation inhibitor project, dose response (AID 1117359); assay type: functional; settings: THP-1
[19] = Luminescence Cell-Based Dose Retest to Confirm Inhibitors of Cancer Stem Cells. [Related pubchem assays (depositor defined):AID2717, AID2721]; assay type: functional; settings: Homo sapiens
[20] = blockers of HIV-1 envelope-mediated cell-cell fusion – cherry-pick, dose response (AID 652057); assay type: functional, cell-based
[21] = blockers of HIV-1 ZM109 envelope-driven cell-cell fusion – HeLa effector, CEM target cells, luciferase, cherry-pick, dose response (AID 652058); assay type: functional, cell-based;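 also: luciferase signal from HIV-1 Env mediated cell-cell fusion of effector and target cells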
[22] = off-target signal loss in HeLa-CEM21 co-culture – HeLa F-luc CTL cells, cherry-picked, counter-screen for HIV-1 Env fusion inhibitor project, dose response (AID 652040); assay type: functional, cell-based;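 also: potency for signal decrease marking cytotoxic or nonspecific inhibition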
[23] = HIV-1 AD8 envelope cell-cell fusion blockers – cherry-pick, dose response (AID 652062); assay type: functional, cell-based;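 also: luciferase signal from cell-cell fusion driven by HIV-1 clade B AD8 Env; potency is for inhibitors of fusion seen as a drop in luminescence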
[24] = molecular target: Cytochrome P450 2C9 (Homo sapiens, UniProt P11712)
Cytochrome P450 2C9, sequence (P11712 whole entry): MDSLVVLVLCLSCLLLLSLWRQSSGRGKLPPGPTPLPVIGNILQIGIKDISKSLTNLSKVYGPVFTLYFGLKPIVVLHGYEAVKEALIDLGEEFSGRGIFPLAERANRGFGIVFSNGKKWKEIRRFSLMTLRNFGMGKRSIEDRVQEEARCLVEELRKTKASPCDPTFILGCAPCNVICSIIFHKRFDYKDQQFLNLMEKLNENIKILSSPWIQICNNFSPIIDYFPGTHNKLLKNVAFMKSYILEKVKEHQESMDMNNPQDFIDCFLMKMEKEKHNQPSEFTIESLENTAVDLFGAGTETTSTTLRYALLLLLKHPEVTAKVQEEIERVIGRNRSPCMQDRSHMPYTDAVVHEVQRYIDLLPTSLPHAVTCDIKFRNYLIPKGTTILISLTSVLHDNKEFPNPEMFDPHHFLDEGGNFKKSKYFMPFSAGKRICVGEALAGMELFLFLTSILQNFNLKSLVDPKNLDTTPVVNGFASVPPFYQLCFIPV

[25] = molecular target: Cytochrome P450 3A4 (Homo sapiens, UniProt P08684);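 also: CYP3A4 tested as one member of a cytochrome P450 panel screen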
Cytochrome P450 3A4, sequence (P08684 whole entry): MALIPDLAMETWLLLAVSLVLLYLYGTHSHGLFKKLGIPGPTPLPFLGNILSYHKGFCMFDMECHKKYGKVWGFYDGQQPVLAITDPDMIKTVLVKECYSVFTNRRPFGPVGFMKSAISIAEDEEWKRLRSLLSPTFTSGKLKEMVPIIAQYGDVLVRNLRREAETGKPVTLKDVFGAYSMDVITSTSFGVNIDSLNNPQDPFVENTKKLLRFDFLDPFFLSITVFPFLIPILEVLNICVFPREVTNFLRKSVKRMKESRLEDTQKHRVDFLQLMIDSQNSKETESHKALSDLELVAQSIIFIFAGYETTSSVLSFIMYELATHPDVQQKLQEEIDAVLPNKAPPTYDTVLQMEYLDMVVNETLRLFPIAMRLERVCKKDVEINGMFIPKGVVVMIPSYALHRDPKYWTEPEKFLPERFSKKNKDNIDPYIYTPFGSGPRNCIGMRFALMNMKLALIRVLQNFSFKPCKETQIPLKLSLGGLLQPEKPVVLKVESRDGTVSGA

[26] = molecular target: Paired box protein Pax-8 (Homo sapiens, UniProt Q06710); test: PAX8 transcriptional activity inhibition in RMG-I – RMG-I cells, luciferase, cherry-pick, dose response (AID 687027); assay type: functional, cell-based;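 also: luciferase reporter driven by Pax8 target thyroperoxidase promoter measured by SteadyGlo luminescence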
Paired box protein Pax-8, sequence (Q06710 whole entry): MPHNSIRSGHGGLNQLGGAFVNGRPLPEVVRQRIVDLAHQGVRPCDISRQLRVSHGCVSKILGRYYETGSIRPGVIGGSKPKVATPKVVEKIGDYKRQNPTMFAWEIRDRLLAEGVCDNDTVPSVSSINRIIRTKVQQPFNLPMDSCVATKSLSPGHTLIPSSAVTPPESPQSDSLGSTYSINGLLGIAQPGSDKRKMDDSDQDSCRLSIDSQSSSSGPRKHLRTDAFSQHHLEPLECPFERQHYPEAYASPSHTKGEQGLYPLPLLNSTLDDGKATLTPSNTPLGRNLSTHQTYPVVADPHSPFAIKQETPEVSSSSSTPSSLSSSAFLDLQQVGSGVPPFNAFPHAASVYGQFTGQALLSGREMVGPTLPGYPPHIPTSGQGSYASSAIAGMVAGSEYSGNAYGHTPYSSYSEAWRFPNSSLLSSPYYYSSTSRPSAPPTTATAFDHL

[27] = OVCAR-3 cell viability loss – plate reader, dry powder samples, PAX8 inhibitor project, dose response (AID 743044); assay type: functional, cell-based
[28] = IGROV1 cell killing – plate reader, dry powder samples, PAX8 inhibitor project, dose response (AID 743043); assay type: functional, cell-based; settings: IGROV-1
[29] = OVCAR8 cell viability loss – plate reader, dry powder samples, PAX8 project, dose response (AID 743197); assay type: functional, cell-based; settings: OVCAR-8

## CC(=O)CC1OC(O)=C(Br)/C1=N/Cc1ccccc1 (stereo not given)
[1]
  EC50: 7.33 µM (active)
[2]
  IC50: 41.6 µM (active)
[3]
  EC50: 808 nM (active)
[4]
  EC50: 9.82 µM (active)
[5]
  EC50: 4.68 µM (active)

## C=C1c2c(Cl)ccc(O)c2C(=O)C2=C(O)[C@]3(O)C(=O)C(C(N)=O)=C(O)[C@@H](N(C)C)[C@@H]3[C@@H](O)[C@H]12.O=C(O)c1cc(S(=O)(=O)O)ccc1O [MECLOCYCLINE SULFOSALICYLATE]
[6]
  CC50: 16.4 µM (active)
[7]
  IC50: > 20 µM (inactive)
[8]
  IC50: 8.79 µM (active)
[9]
  IC50: 39.7 µM (inactive)
[10]
  IC50: 63 µM (active)

## CCOC(=O)N1CCN(C(=O)c2cc3cc(C)ccc3[nH]2)CC1
[11]
  IC50: > 80 µM (inactive)

## OC1(c2ccc(F)cc2)CCN(Cc2nnnn2Cc2cccs2)CC1
[12]
  IC50: > 50 µM (not active)

## O=C(O)c1cccc(-n2cccc2/C=C/[N+](=O)[O-])c1
[13]
  IC50: 53.6 µM (active)
[8]
  IC50: > 66.6 µM (inactive)
[9]
  IC50: 26.5 µM (inactive)

## CSc1nc2cc3c(cc2n1C(=O)c1ccc(C)cc1)OCCO3
[12]
  IC50: 0.556 µM (active)
[14]
  AC50: > 350 µM (inactive)

## CC(=O)N1CCc2cc(C(=O)CN3CCN(c4ccccn4)CC3)ccc21
[15]
  EC50: 92.5 µM (inactive)
[16]
  EC50: 0.257 µM (active)

## CCOC(=O)c1sc2nc(CC(=O)OC)nc(NCc3ccco3)c2c1C
[17]
  EC50: 63.7 µM (active)
[18]
  CC50: 32.7 µM (active)

## Cc1cc(C)c(O)c(-c2[nH]nc3c2C(c2cccc(O)c2)N(Cc2ccco2)C3=O)c1 (stereo not given)
[19]
  AC50: 5.49 µM (active)
[15]
  EC50: 92.5 µM (inactive)
[16]
  EC50: 8.01 µM (active)

## c1ccc2c(N3CCCCC3)ncnc2c1
[20]
  AC50: 31.5 µM (active)
[21]
  AC50: 5.37 µM (active)
[22]
  AC50: 56.2 µM (active)
[23]
  AC50: 53.9 µM (active)

## CCOC(=O)c1c(C)nc2sc3c(=O)n(-c4ccc(C(C)=O)cc4)nnc3c2c1-c1ccc(Cl)cc1
[24]
  AC50: 2.82 µM (inconclusive)
[25]
  AC50: inconclusive

## CC(C)N1CCOC(c2ccc(O)c(O)c2)C1 (stereo not given)
[15]
  EC50: 92.3 µM (inactive)
[16]
  EC50: 1.68 µM (active)

## CCN(CC)S(=O)(=O)c1cc(NC(=O)C(=O)c2c(-c3ccccc3)cc3ccccn23)ccc1C
[20]
  AC50: 10.6 µM (active)
[21]
  AC50: 24.9 µM (active)
[22]
  AC50: 9.48 µM (active)
[23]
  AC50: 17.1 µM (active)

## C[C@@H]1CCCCO[C@@H](CN(C)Cc2ccc(C(F)(F)F)cc2)[C@H](C)CN([C@H](C)CO)C(=O)c2cc(NS(=O)(=O)c3ccc(F)cc3)ccc2O1
[26]
  AC50: 5.08 µM (active)
[27]
  AC50: 25.2 µM (active)
[28]
  AC50: 40 µM (active)
[29]
  AC50: 40.3 µM (active)
